Experimental data as given in patent publication US11964943B2, “3,5-diarylidenyl-n-substituted-piperid-4-one-derived inhibitors of Stat3 pathway activity and uses thereof” (priority 2017, dated 2024).
“And” between values parts separate entries of the source, which are not always exact repeats. Equal entries are not always repeated. One block for each compound: values may come before it.

Legend:
[1] = tested on: HCT116-oxaliplatin resistant spheroids; assay: CellTiter-Glo 3D cell viability assay, HCT116-oxaliplatin resistant spheroids; format: cell-based; conditions: 96 h exposure, 3D CellTiter-Glo
Experimental: (§1) For cell spheroid formation, HCT116-oxaliplatin resistant cells, A2780-cisplatin resistant cells, and HT1080 cells were seeded in Corning® Spheroid opaque-walled 96 well Microplates (ultra-low attachment; Nuclon™ Sphera™, Thermofisher) at densities of 2000 cells/well in 100 μl of cell solution and allowed to grow for 4 days, before any manipulation.
(§2) Spheroid cells were treated by adding 100 μl of 2-fold the desired compound concentration and incubated at 37° C. for 96 h. At the end of drug incubation, both the plates and the CellTitre-Glo® reagent (previously thawn overnight in the fridge) were equilibrated at room temperature for at least 30 min. Subsequently, 100 μl of cell solution were carefully removed from each well, without disrupting the spheroid and equal volume of CellTitre-Glo® reagent was added. Cell lysis was performed by vigorously shaking the plate for 5 min. To stabilize the luminescent signal, the plate was incubated in the dark at RT for another 30 min before luminescence was recorded on a plate reader. The cell viability of treated samples was normalised to the untreated controls.
(§3) The cytotoxicity studies in spheroids were conducted using the CellTiter-Glo® 3D Cell viability assay (Promega) following the instructions of the manufacturer.

[2] = tested on: A2780-cisplatin resistant spheroids; assay: CellTiter-Glo 3D cell viability assay, A2780-cisplatin resistant spheroids; format: cell-based; conditions: 96 h exposure, 3D CellTiter-Glo
Experimental: as §1
as §2, with “At” for “Spheroid cells were treated by adding 100 μl of 2-fold the desired compound concentration and incubated at 37° C. for 96 h. At”
as §3

[3] = tested on: A2780-cisplatin resistant spheroids; assay: Spheroid diameter measurement; format: cell-based; conditions: 96 h
Experimental: as §1
The diameters of spheroid cells were determined using Cell^F Imaging Software. A diameter corresponds to the mean value of one horizontal and one vertical measurement.

[4] = tested on: DU145 cells; assay: SRB growth inhibition and combination index with cisplatin, DU145; format: cell-based
Experimental: (§4) The affected fractions were calculated from the SRB or MTT assay absorbance values and were registered to derive the respective CI values and isobolograms. A CI value of less than 1 (one) indicates synergy.
(§5) The SRB assay was used to assess cell growth inhibition by IE-8 alone and in combination with cisplatin. […] For combination studies drug treatments were sequential with IE-8 applied first followed by cisplatin for 1 h. […] Absorbance was read at 540 nm and results were normalized to untreated controls. For analysis of GC50 values and statistical significance, non-linear regression analysis with a comparison of fits was performed with the GraphPad Prism 6.0 software.
as §5, with “Drug Combination studies. Sulforhodamine B (SRB) Cell Growth Inhibition Assay. The” for “The”, “8 h” for “IE-8”

[5] = tested on: A549 cells; assay: SRB growth inhibition and combination index with cisplatin, A549; format: cell-based, human
Experimental: as §4, §5
as §5, with “Drug Combination studies. Sulforhodamine B (SRB) Cell Growth Inhibition Assay. The” for “The”, “8 h” for “IE-8”

[6] = tested on: HCT116-oxaliplatin resistant cells; assay: Colony formation assay with oxaliplatin; format: cell-based; conditions: 1 μM oxaliplatin alone, 10 days
Experimental: HCT116-oxaliplatin res cells were seeded at 2000 cells/well in 6-well plates and allowed to adhere overnight. The next day, oxaliplatin and IE-8 were added simultaneously. First, the specific amount of cells solution was removed from each well and afterwards the same volume of the appropriate drug dilution was added to achieve the right concentration. IE-8 was diluted in DMA. Cells were also treated with Oxaliplatin and IE-8 alone. The plates were left the incubator and the cells were allowed to grow colonies for 10 days. After 10 days the entire cell solution was removed from each well, which was subsequently washed with 500 μl of PBS. 1 ml of cold 100% methanol was added and the plates were incubated for 30 minutes at 4 C. After a second wash, the cells were stained with 1 ml of […] staining dye for 2-3 minutes, rinsed with water, allowed to dry overnight and the colonies were quantified using a gel imaging system (Fusion Fx7) and its in-built colony counter software.

[7] = tested on: pStat3^Tyr705; assay: Immunoblotting of phosphorylated Stat3 in cancer cells; format: cell-based, human; conditions: DU145 and A549 cells with constitutively active Stat3, 18 h
Experimental: (§6) Whole cell lysates were prepared by incubation of harvested, trypsinised cells with CelLytic™ lysis buffer (Sigma-Aldrich) supplemented with 1× protease and 1× phosphatase inhibitors (Roche). Protein quantification was carried out using a protein assay kit (Bio-Rad). 40 μg of the lysates were denatured by heating for 5 min at 95° C. in sample buffer containing 100 mM Tris-Cl (pH 6.8), 4% SDS, 10% 2-mercaptoethanol, 20% glycerol, and 0.02% bromophenol blue. Precision Plus Protein Dual colour standards (Bio-Rad) were used as a molecular weight reference. For the detection of STAT3, pSTAT3, α/β tubulin, cleaved PARP, Bcl-2, Bcl-xL, FANCD2, BRCA1, EME1 and MUS81, proteins were separated on a NuPAGE 7% Tris-acetate gel (Life Technologies) and subsequently transferred to polyvinylidene difluoride membranes (Immobilon®-P transfer membrane; Millipore). […] Membranes were blocked for 1 h at ambient temperature in a blocking buffer containing 5% w/v Bovine Serum Albumin (BSA; Sigma-Aldrich) in 1×TBS, 0.1% Tween-20. All proteins were identified by incubation in a 1:1000 dilution of the respective polyclonal antibodies (Cell signaling) in blocking buffer overnight at 4° C. and subsequent incubation for 1 h with an anti-rabbit or anti-mouse secondary antibody (Cell signalling) at a dilution of 1:1000. The α/β tubulin (1:2000; Cell Signaling) and the anti-phospho-histone H2AX Antibody (1:500; Millipore) were used in the denoted dilutions. Antibody binding was visualized by enhanced chemiluminescence (Amersham) on autoradiography film (Kodak-X-Omat). Alternatively Images were captured by the GelDoc-It Imaging System Fusion Fx7 (Vilber Lourmat, Germany).
as §6, with “Immunoblotting. Whole” for “Whole”, “CelLytic™ M” for “CelLytic™”, “pSTAT3, a/0” for “pSTAT3, α/β”, “in 1×TBS” for “in 1×TBS,”, “(Cell signalling)” for “(Cell signaling)”

[8] = cisplatin alone 1 h, 96 h total, SRB

IC50 [1]: 16.5 µM | IC50 [2]: 24.4 ± 3.36 µM
Structure (SMILES): O=C1C(O)=C([C@H]2CC[C@H](c3ccc(Cl)cc3)CC2)C(=O)c2ccccc21 [Atovaquone, reference compound]

Structure (SMILES): N.N.[Cl][Pt][Cl] [Cisplatin, reference compound]
Diameter (μm) ([3]; cisplatin 1.75 μM): 1071.4 μm | Diameter (μm) ([3]; cisplatin 3.5 μM): 1047.5 μm | Diameter (μm) ([3]; cisplatin 5.25 μM): 916.4 μm | Diameter (μm) ([3]; cisplatin 7.0 μM): 833.6 μm | Diameter (μm) ([3]; cisplatin 7.0 μM, listed as cisplatin): 834 μm | Diameter (μm) ([3]; cisplatin 8.75 μM): 713.0 μm | IC50 [4, 8]: 49.2 µM and 49.3 µM | IC50 [5, 8]: 77.8 µM and 64.6 µM

IC50 [1]: 33 µM | IC50 [2]: 29.7 ± 7.81 µM
Structure (SMILES): CC1(C)C=C(CN2C/C(=C\c3ccc(F)cc3)C(=O)/C(=C/c3ccc(F)cc3)C2)C(C)(C)N1O [HO-3867, reference compound]

Structure (SMILES): O=C(O)C(=O)O.[NH-][C@@H]1CCCC[C@H]1[NH-].[Pt+2] [Oxaliplatin, reference compound]
number of colonies [6]: about 260

Structure (SMILES): O=[N+]([O-])c1ccc2c(c1)S(=O)(=O)C=C2 [Stattic]
inhibition of Stat3 tyrosine (705) phosphorylation (pStat3) [7]: much higher doses are required | combination index analysis with cisplatin ([4]; stattic:cisplatin ratio 1:5): lower levels of synergy within a narrower range of doses | combination index analysis with cisplatin ([5]; stattic:cisplatin ratio 1:5): lower levels of synergy | IC50 [2]: 9.14 ± 2.74 µM
